# Measured values as given in patent US20040033555A1 (priority 2003, published 2004).
# Like-named read-outs stand apart in the source and are kept apart here.
# Columns and labels:
# Phytophthora infestans = format: in vivo; details: preventative foliar spray, tomato; for % Disease Area, Photon Imaging: chlorophyll fluorescence; for % Disease Area, Visual Scoring: scored by eye
# [1] = system: Erysiphe graminis f sp. hordei; assay: Preventative control of powdery mildew on barley, % disease area by visual scoring and by photon imaging (fluorescein diacetate fluorescence); format: in vivo; details: preventative foliar spray; for % Disease Area, Photon Imaging: FDA fluorescence; for % Disease Area, Visual Scoring: scored by eye
# Experimental: Barley plants (Hordeum vulgari, cv. Boone) are cultivated either as single or multiple plants per plant growth unit, typically in a 2.54 cm by 2.54 cm pot of soil. Plants are grown in an environmentally regulated growth chamber at 20° C. and 70% humidity. The plants are approximately 7 days old at the time of application of the plant treatment agent. Single plant units are sprayed with fungicide standards or experimental plant treatment agents to the point of run-off.
# Twenty-four hours following application of the plant treatment agent the barley plants are subsequently inoculated with spores of a fungal plant pathogen and incubated under the appropriate conditions for a period sufficient to allow the development of visible disease symptoms.
# Inoculation with powdery mildew is with a spore suspension of Erysiphe graminis f. sp. hoerdei, (the causal agent of barley powdery mildew). Powdery mildew-inoculated plants are placed in a dry area for 4 hours following inoculation and are subsequently grown for an additional seven days at 20° C. and 65% humidity. Powdery mildew-infected plants are 15 days old at the time of rating of disease.
# For the determination of the % disease area for a sample, a binary image is generated which defined the area of pixels associated with a LGM for each object in the field of view. The percent disease area is calculated by dividing the pixel number for the LGM area by the pixel number for the sample area. For the detection of a LGM endogenous to the plant substrate, an additional step of subtracting the fluorescence area from the total leaf area and then dividing by the total leaf area is required for the percent disease area calculation.
# The effectiveness of a plant treatment agent on plants infected with a disease organism is determined by treating the test unit with a pro-LGM and detecting photon emission. Barley plants cultivated as described above are given 125 μL spray applications of a preventative treatment containing 40, 5, 1, 0.4 and 0.2 ppm flusilazole. The plant treatment agent is formulated by resuspending the appropriate amount of the dried compound in 6 μL of DMSO with shaking overnight, followed by the subsequent addition of 570 μL of a 50/50 Acetone/Water-Trem solution, yielding the desired final concentration. The Water-Trem contains 18 drops of the Trem® 014 surfactant (Henkel Corp, Amber, Pa.) per L of water. The formulated plant treatment agent is applied as a foliar spray application. In this example, a microsprayer apparatus (U.S. Patent Application No. 60/172,928) applying a fine aerosol mist from the tip of an ultrasonic nebulizer, with air assist, to a rotating electrostatically charged perpendicular plant target is employed.
# Twenty-four hours following application of the plant treatment agent the barley plants are subsequently inoculated with a suspension of powdery mildew (Erysiphe graminis f sp. hordei) spores, and incubated under the appropriate conditions for a period sufficient to allow the development of visible disease symptoms, as described above. Untreated plants are also infected at this time for the production of untreated, infected controls. Untreated, uninfected control plants are also generated in parallel.
# Plants to be rated for fungicide activity are first scored visually by eye for % disease coverage. The same samples are subsequently treated with the pro-LGM fluorescein diacetate. The FDA is formulated in a stock solution at 1 mg FDA/mL acetone. A final working solution is formulated which contains 5 μg/mL fluorescein diacetate and 0.005% Trem® 014. The FDA working solution is applied by spraying the sample using a Preval® sprayer (Precision Valve Corporation, Yonkers, N.Y.) with sufficient solution to wet all surfaces. Care must be taken not to allow access of FDA to leaves with cuts or abraded surfaces. […]
# Magnaportha grisea = details: 5 ppm, systemic application to media prior to seeding, Eragrostis curvula, M. grisea strain expressing a FP
structure (smiles),measurement,setting,value
COCC(=O)N(c1c(C)cccc1C)C(C)C(=O)OC (centres unmarked) [Ridomil],"% Disease Area, Photon Imaging",Phytophthora infestans; 1 ppm,60%
same,"% Disease Area, Visual Scoring",Phytophthora infestans; 1 ppm,53%
same,"% Disease Area, Photon Imaging",Phytophthora infestans; 5 ppm,10%
same,"% Disease Area, Visual Scoring",Phytophthora infestans; 5 ppm,24%
same,"% Disease Area, Photon Imaging",Phytophthora infestans; 20 ppm,2%
same,"% Disease Area, Visual Scoring",Phytophthora infestans; 20 ppm,3%
C[Si](Cn1cncn1)(c1ccc(F)cc1)c1ccc(F)cc1 [flusilazole],"% Disease Area, Photon Imaging",[1]; 0.2 ppm,64%
same,"% Disease Area, Visual Scoring",[1]; 0.2 ppm,52%
same,"% Disease Area, Photon Imaging",[1]; 0.4 ppm,27%
same,"% Disease Area, Visual Scoring",[1]; 0.4 ppm,19%
same,"% Disease Area, Photon Imaging",[1]; 1 ppm,24%
same,"% Disease Area, Visual Scoring",[1]; 1 ppm,7%
same,"% Disease Area, Photon Imaging",[1]; 5 ppm,13%
same,"% Disease Area, Visual Scoring",[1]; 5 ppm,1%
same,"% Disease Area, Photon Imaging",[1]; 40 ppm,0%
same,"% Disease Area, Visual Scoring",[1]; 40 ppm,0%
Cc1cccc2sc3nncn3c12 [tricyclazole],"FP fluorescence relative to untreated, inoculated control",Magnaportha grisea,reduced fluorescence
